Laboratory results from US8877206B2, “Stimulation of an immune response by cationic lipids” (PDS Biotechnology Corporation, priority 2007, dated 2014).
Like-named read-outs stand apart in the source and are kept apart here.

Tests used:
BMDC [1] = assay: CCL2 release from BMDC (ELISA); type: cell-based, C57BL/6 mice
DC2.4 cells = assay: Affymetrix microarray of DC2.4 cells treated with DOTAP liposomes; type: cell-based, mouse
TC-1 tumor = assay: TC-1 HPV-positive tumor growth in treated mice; type: in vivo, C57BL/6 mice; settings: 100 nmole dose, without E7 peptide
[2] = system: bone marrow derived dendritic cells (BMDC); type: cell-based, mouse
[3] = system: murine bone marrow derived dendritic cells (BMDC); settings: Vangesseri et al 2006; cited from earlier work
ERK = assay: Western blot of ERK and p38 activation in BMDC; type: cell-based, mouse; settings: for Effect on DOTAP-induced ERK phosphorylation: FIG. 19C
Method: (§1) BMDC cell lysate was collected after different treatments and total cellular protein was resolved on polyacrylamide/SDS gels and then transferred to polyvinylidene difluoride membranes. The membranes were blocked with 5% nonfat milk in Tris-buffered saline for 1 h and then incubated from 1 h to overnight with primary antibody. After washing the membranes with Tris-buffered saline three times, the membranes were incubated horseradish peroxidase conjugated secondary antibody for 1 h. The peroxidase activity associated with the protein bands was detected by enhanced chemiluminescence using ECL plus (Amershan International) followed by autoradiography.

[4] = Western blot of ERK and p38 activation in BMDC; type: cell-based, mouse
Method: as §1

BMDC [5] = assay: RT-PCR of chemokine mRNA in BMDC; type: cell-based, mouse; settings: 50 μM liposomes for 16 h; FIG. 15B
Method: Total RNA was isolated from BMDC by Rneasy Mini Kit from Qiagen according to the manufacturer's instruction. Following digestion with Dnase for 30 min at 37° C., the total RNA concentration was determined by spectrophotometry. Primer pairs for mouse CCL2, CCL3, CCL4 and β-actin (forward primer 5′-[…]-3′ [SEQ. ID. NO. 3] and reverse primer 5′-[…]-3′ [SEQ. ID. NO. 4] for CCL2; forward primer 5′-[…]-3′ [SEQ. ID. NO. 5] and reverse primer 5′-[…]-3′ [SEQ. ID. NO. 6] for CCL3; forward primer 5′-[…]-3′ [SEQ. ID. NO. 7] and reverse primer 5′-[…]-3′ [SEQ. ID. NO. 8] and reverse primer 5′-[…]-3′ [SEQ. ID. NO. 9] for β-actin [Wang H., et al., Potential involvement of monocyte chemoattractant protein (MCP)-1/CCL2 in IL-4-mediated tumor immunity through inducing dendritic cell migration into the draining lymph nodes, Int Immunopharmacol 3:627-42, (2003)] were synthesized by IDT technology. RT-PCR was performed using the one-step RT-PCR kit (commercially available from Invitrogen of Carlsbad, Calif.) where reverse transcription and DNA amplification occur in the same reaction. Briefly, 1 μg of total RNA was used as a template in a reaction that included the appropriate primers in the presence of both reverse transcriptase and Taq polymerase. The mixture was incubated at 45° C. for 30 min and cycled 25 times at 94° C. for 30 s, 55° C. for 30 s, and 72° C. for 2 min. […]

DC2.4 dendritic cells = settings: cited from earlier work; for Potency to stimulate expression of CD 80 vs lipids with longer or saturated acyl chains: ethyl phosphocholine head group lipids, FIG. 14B; for Expression of CD80/CD86: FIG. 14A, disclosed in U.S. Pat. No. 7,303,881
[6] = system: draining lymph node cells; assay: Uptake of NBD-DOTAP and dendritic cell activation/migration to the draining lymph node; type: in vivo, mice
Method: Naïve mice (n=4-6) were injected with PBS control (FIGS. 7 A, C and E) or DOTAP/E7 containing 100 nmols total lipid with 0.5% 1-Oleoyl-2-[6-[(7-nitro-2-1,3-benzoxadiazol-4-yl)amino]hexanoyl]-3-trimethylammonium propane] (“NBD-DOTAP”) (FIGS. 7 B, D, and F). At 4 h after the injection, draining lymph node cells were prepared and stained with appropriate antibodies to surface markers. The co-expression of NBD and CD11c (FIGS. 7 A and B) or CD86 (FIGS. 7 C and D) were analyzed within total lymph node cells whereas the co-expression of NBD and CD8 (FIGS. 7 E and F) were gated and analyzed within CD3^+ population. The numbers represented the percentages of cells in the quadrants. Draining lymph node cells were harvested and analyzed by flow cytometry at different time points post injection. The numbers of CD11c^+ cells among total lymph node cells increased by more than 2.5-fold compared to untreated mice 4 h after NBD-DOTAP/E7 injection (FIGS. 7 A and B). […] NBD uptake by other cell types such as T lymphocytes was also investigated by costaining with anti-CD3, CD4 and CD8 antibodies.

[7] = BMDC stimulated 20 h at 37° C., supernatant ELISA, FIG. 1

CCCCCCCC/C=C\CCCCCCCC(=O)OC[C@H](COP(=O)([O-])OCC[N+](C)(C)C)OC(=O)CCCCCCC/C=C\CCCCCCCC [DOPC, dioleoyl phosphatidylcholine]
MCP-1/CCL2 release from BMDC by liposomes (BMDC [1]): did not

CCCCCCCC/C=C\CCCCCCCC(=O)OCC(C[N+](C)(C)C)OC(=O)CCCCCCC/C=C\CCCCCCCC (stereo not drawn) [DOTAP, 1,2-dioleoyl-3-trimethylammonium propane]
CD11c mRNA (DC2.4 cells; 50 μM DOTAP): induced
IL-1 receptor antagonist (IL1RA) mRNA (DC2.4 cells; 50 μM DOTAP treatment for 16 h): increased
IL-1 β mRNA (DC2.4 cells; 50 μM DOTAP treatment for 16 h): decreased
mRNA of chemokines CCL2, CCL3, CCL4 (DC2.4 cells; 50 μM DOTAP, FIG. 15A): induced overexpression of several chemokines
TC-1 tumor growth (TC-1 tumor): did not show significant inhibition of tumor growth
CCL2 release (BMDC [1]): induced significant amounts of CCL2
Concentration at which maximum CCL2 induction was reached (BMDC [1]): 45 to 75 µM
MCP-1/CCL2 release from BMDC by liposomes (BMDC [1]): induced the MCP-1/CCL2 release
IL-10 induction [2]: no induction of IL-10
IL-12 production [2, 7]: production increased in response to DOTAP concentration
TNF-α production [2, 7]: did not induce significant levels
Expression of co-stimulatory molecules CD80 and CD86 [3]: activated for the expression of the co-stimulatory molecules
Time phospho-ERK stayed at a high level (ERK): at least 40 min
Time to ERK phosphorylation (ERK): ≤ 10 min
Phosphorylation of IκB and subsequent degradation [4]: no phosphorylation of IκB
p38 activation [4]: slightly activated
CCL2 and CCL4 mRNA (RT-PCR) (BMDC [5]): upregulated

CCCCCCCC/C=C\CCCCCCCC(=O)OC[C@H](CO)OC(=O)CCCCCCC/C=C\CCCCCCCC [DOG]
MCP-1/CCL2 release from BMDC by liposomes (BMDC [1]; FIG. 16): did not

CCCCCCCC/C=C\CCCCCCCC(=O)OC[C@@H](COP(=O)(OCC)OCC[N+](C)(C)C)OC(=O)CCCCCCC/C=C\CCCCCCCC (stereo partly drawn) [DOEPC, 1,2-dioleoyl-sn-glycero-3-ethylphosphocholine]
MCP-1/CCL2 release from BMDC by liposomes (BMDC [1]): induced the MCP-1/CCL2 release
Potency to stimulate expression of CD 80 vs lipids with longer or saturated acyl chains (DC2.4 dendritic cells): more potent
Expression of co-stimulatory molecules CD80 and CD86 [3]: activated for the expression of the co-stimulatory molecules
CCL2 and CCL4 mRNA (RT-PCR) (BMDC [5]): upregulated

CCCCCCCCCCCCCC(=O)OCC(COP(=O)(OCC)OCC[N+](C)(C)C)OC(=O)CCCCCCCCCCCCC (stereo not drawn) [DMEPC, 1,2-dimyristoyl-sn-glycero-3-ethylphosphocholine]
Potency to stimulate expression of CD 80 vs lipids with longer or saturated acyl chains (DC2.4 dendritic cells): more potent

CCCCCCCC/C=C\CCCCCCCC(=O)OCC(C[N+](C)(C)C)OC(=O)CCCCCNc1ccc([N+](=O)[O-])c2nonc12 (stereo not drawn) [NBD-DOTAP]
NBD uptake by CD3+ cells ([6]; FIG. 7E, F): no NBD uptake
Share taken up by dendritic cells ([6]; soon after immunization): ~80%

CCCCCCCCCCCC(=O)OC[C@H](COP(=O)(OCC)OCC[N+](C)(C)C)OC(=O)CCCCCCCCCCC (stereo partly drawn) [DLEPC, 1,2-dilauroyl-sn-glycero-3-ethylphosphocholine]
Potency to stimulate expression of CD 80 vs lipids with longer or saturated acyl chains (DC2.4 dendritic cells): more potent

CCCCCCCC/C=C\CCCCCCCC(=O)OCC(CN(C)C)OC(=O)CCCCCCC/C=C\CCCCCCCC (stereo not drawn) [DODAP, dioleoyl dimethylaminopropane]
MCP-1/CCL2 release from BMDC by liposomes (BMDC [1]): did not induce the activity

CCCCCCCCCCCCCCOC(=O)CC[C@H](NC(=O)[C@@H](N)CCCCN)C(=O)OCCCCCCCCCCCCCC [DMKD, O,O′-dimyristyl-N-lysyl-glutamate]
Expression of CD80/CD86 (DC2.4 dendritic cells): strongly stimulated

CCCCCCCC/C=C\CCCCCCCC(=O)OC[C@H](COP(=O)(O)OC[C@H](N)C(=O)O)OC(=O)CCCCCCC/C=C\CCCCCCCC [DOPS]
MCP-1/CCL2 release from BMDC by liposomes (BMDC [1]): did not

pertussis toxin [reference compound]
Effect on DOTAP-induced ERK phosphorylation (ERK): slight inhibitory effect

GF109203X [reference compound]
Effect on DOTAP-induced ERK phosphorylation (ERK): no effect

CCCCCCCC/C=C\CCCCCCCC(=O)OC[C@H](COP(=O)(O)OCC(O)CO)OC(=O)CCCCCCC/C=C\CCCCCCCC (stereo partly drawn) [DOPG]
MCP-1/CCL2 release from BMDC by liposomes (BMDC [1]; FIG. 16): did not

CC(C)(C)n1nc(-c2ccc(Cl)cc2)c2c(N)ncnc21 [PP2, reference compound]
Effect on DOTAP-induced CCL2 production (BMDC [1]; pre-incubated 20 min, then 75 μM DOTAP 24 h, PD 20 μM, SB 10 μM, U 10 μM, PTx 200 ng/mL, PP2 10 μM, Wort 200 nM, GF 200 nM, FIG. 18): no inhibitory effect
Effect on DOTAP-induced ERK phosphorylation (ERK): no effect

CCCCCCCCCCCCCCOC(=O)C[C@H](NC(=O)[C@@H](N)CCCCN)C(=O)OCCCCCCCCCCCCCC [DMKE, O,O′-dimyristyl-N-lysyl aspartate]
Expression of CD80/CD86 (DC2.4 dendritic cells): strongly stimulated
